Among the test systems are SF-268; M14; MDA-MB-435; 786-0; SW-620; BT-549; SK-MEL-2; A549; U-251; RPMI-8226; K562; HCT-15; EKVX; HL-60; NCI-H226; SF-539; SNB-19; MCF7; SK-OV-3; MDA-MB-231.
What all share (test): NCI anticancer screen, dose series, 48 h

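Step 1: Grow cells in 96-well plates. Step 2: Expose to compound for 48 hours at 5 concentrations. Step 3: Interpolate endpoints linearly; if unreached, use highest concentration. The concentration for 50% growth inhibition is given as GI50.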 The source made the active and inactive calls. Rule as the data show it: active = GI50 up to about 1.1 µM and inactive = higher.

For `Cn1cnc([N+](=O)[O-])c1Sc1nnc(-c2cccnc2)n1C`, the GI50 was 36.2 µM (inactive) in the assay with SF-268; 16.8 µM (inactive) in the assay on M14; 14.9 µM (inactive) in the assay on MDA-MB-435; 18.5 µM (inactive) with 786-0; 14.7 µM (inactive) in the assay on SW-620; 19 µM (inactive) with BT-549. Also, the GI50 in the assay with SK-MEL-2 is 18.5 µM (inactive); in the assay on A549, 84.5 µM (inactive); in the assay on U-251, 43.6 µM (inactive); in the assay with RPMI-8226 it was 18.1 µM (inactive); in the assay with K562, 19.9 µM (inactive); in the assay with HCT-15, 17.2 µM. Also, the GI50 is 38.2 µM (inactive) in the assay with EKVX; 6.55 µM (inactive) with HL-60; > 66.4 µM (inactive) with NCI-H226; 22.2 µM (inactive) in the assay on SF-539; > 100 µM (inactive) in the assay with SNB-19; 23.8 µM (inactive) in the assay on MCF7. Also, the results for the GI50 in the assay with SK-OV-3 and in the assay with MDA-MB-231 were > 100 µM (inactive) and 19.2 µM (inactive), respectively.
On to `COc1ccc([C@H]2C=C(c3cc(F)c(Cl)cc3Cl)NC(=S)N2)cc1`, for which the GI50 in the assay on SF-268 was 48.5 µM (inactive); in the assay on M14, 32.5 µM (inactive); in the assay on MDA-MB-435, 12.8 µM (inactive); with 786-0, 33.6 µM (inactive); in the assay on SW-620, 30.9 µM (inactive); with BT-549, 32.7 µM (inactive). Moreover, the GI50 was 25.1 µM (inactive) with SK-MEL-2; 35.3 µM (inactive) in the assay on A549; 26.7 µM (inactive) in the assay on U-251; 21.7 µM (inactive) in the assay on RPMI-8226; 15.2 µM (inactive) in the assay with K562; 28.7 µM in the assay on HCT-15. In addition, the GI50 was 28 µM (inactive) in the assay on EKVX; 11.3 µM (inactive) with HL-60; 56.1 µM (inactive) with NCI-H226; 42.4 µM (inactive) in the assay on SF-539; 61 µM (inactive) with SNB-19; 32.6 µM (inactive) with MCF7. Also, the results for the GI50 in the assay with SK-OV-3 and in the assay with MDA-MB-231 were 44.1 µM (inactive) and 27.2 µM (inactive), respectively.
On to `O=C1C[C@H](COCc2ccccc2)NC(=O)C[C@H](COCc2ccccc2)NC(=O)C[C@H](COCc2ccccc2)N1`, for which the GI50 with SF-268 is 40.9 µM (inactive); in the assay on M14, > 100 µM (inactive); in the assay with MDA-MB-435 it was > 100 µM (inactive); in the assay with 786-0, 16.9 µM (inactive); in the assay on SW-620, > 100 µM (inactive); with BT-549, 41.6 µM (inactive). Moreover, the GI50 in the assay with SK-MEL-2 is 28.2 µM (inactive); in the assay with A549, > 100 µM (inactive); in the assay with U-251 it was 12.6 µM (inactive); in the assay on RPMI-8226 it was > 100 µM (inactive); in the assay on K562, 3.52 µM (inactive); in the assay on HCT-15, > 100 µM. The GI50 in the assay on EKVX was > 100 µM (inactive); in the assay on HL-60, 92.7 µM (inactive); with NCI-H226, > 100 µM (inactive); in the assay on SF-539, 15.3 µM (inactive); in the assay on SNB-19 it was 18.6 µM (inactive); with MCF7, > 100 µM (inactive). Further, the results for the GI50 in the assay on SK-OV-3 and in the assay on MDA-MB-231 were 19.5 µM (inactive) and 26.7 µM (inactive), respectively.
For `CCOC(=O)c1cccc(NC(=O)CI)c1`, the GI50 is 0.67 µM (active) in the assay on SF-268; 0.23 µM (active) in the assay with M14; 0.263 µM (active) in the assay on MDA-MB-435; 0.169 µM (active) in the assay with 786-0; 0.207 µM (active) in the assay on SW-620; 0.381 µM (active) in the assay on BT-549. Besides, the GI50 in the assay with SK-MEL-2 is 0.871 µM (active); with A549, 1.75 µM (inactive); in the assay with U-251, 0.313 µM (active); in the assay on RPMI-8226, 0.721 µM (active); with K562, 0.191 µM (active); with HCT-15, 0.336 µM. Also, the GI50 in the assay on EKVX is 1.93 µM (inactive); in the assay on HL-60 it was 0.653 µM (active); in the assay with NCI-H226 it was 0.601 µM (active); in the assay with SF-539, 0.65 µM (active); with SNB-19 it was 3.54 µM (inactive); in the assay on MCF7, 0.394 µM (active). Besides, the GI50 was 0.918 µM (active) in the assay on SK-OV-3 and 1.31 µM (inactive) with MDA-MB-231.
Consider `Cc1ccc(/C=C2\CCS(=O)(=O)c3ccccc3C2=O)cc1`, for which the GI50 with SF-268 is 18.3 µM (inactive); with M14, 26.1 µM (inactive); in the assay on MDA-MB-435, 20.6 µM (inactive); in the assay on 786-0 it was 16.3 µM (inactive); with SW-620, 18.1 µM (inactive); with BT-549 it was 17.5 µM (inactive). In addition, the GI50 in the assay on SK-MEL-2 is 21.9 µM (inactive); with A549, 35.6 µM (inactive); in the assay on U-251 it was 14 µM (inactive); in the assay with RPMI-8226, 31.4 µM (inactive); in the assay on K562, > 100 µM (inactive); in the assay with HCT-15 it was 11.9 µM. Moreover, the GI50 is 17.6 µM (inactive) in the assay on EKVX; 19.8 µM (inactive) with HL-60; 16.6 µM (inactive) with NCI-H226; 12.7 µM (inactive) in the assay on SF-539; 16.1 µM (inactive) in the assay with SNB-19; 11.9 µM (inactive) in the assay on MCF7. Further, the GI50 is 21.7 µM (inactive) in the assay on SK-OV-3 and 16.9 µM (inactive) in the assay with MDA-MB-231.
As to `Oc1ccc(-c2cc(-c3c(O)cc(O)cc3O)on2)cc1`, the GI50 is 44.3 µM (inactive) with SF-268; > 100 µM (inactive) with M14; 56.1 µM (inactive) in the assay on MDA-MB-435; 93.5 µM (inactive) with 786-0; 65.6 µM (inactive) in the assay on SW-620; 54.5 µM (inactive) with BT-549. Moreover, the GI50 in the assay on SK-MEL-2 was > 100 µM (inactive); in the assay on A549, 54.2 µM (inactive); in the assay with U-251 it was 64.7 µM (inactive); with RPMI-8226 it was 44.9 µM (inactive); with K562, 40.5 µM (inactive); with HCT-15 it was 56.8 µM. Also, the GI50 with EKVX is 62.7 µM (inactive); in the assay on HL-60 it was > 100 µM (inactive); in the assay on NCI-H226, 70.8 µM (inactive); in the assay on SF-539, 31.9 µM (inactive); in the assay on SNB-19, 91.2 µM (inactive); in the assay on MCF7 it was 89.5 µM (inactive). The GI50 in the assay with SK-OV-3 was 56.5 µM (inactive); with MDA-MB-231, > 100 µM (inactive).
In the case of `CCOP(=O)(/C=C\n1cc(C)c(=O)[nH]c1=O)OCC`, the GI50 in the assay on SF-268, in the assay on M14, in the assay with MDA-MB-435, with 786-0, in the assay with SW-620 and with BT-549 was > 100 µM (inactive) each time. In addition, the GI50 in the assay on SK-MEL-2 is > 100 µM (inactive); with A549, > 100 µM (inactive); in the assay with U-251, > 100 µM (inactive); in the assay on RPMI-8226, > 100 µM (inactive); with K562 it was > 100 µM (inactive); in the assay on HCT-15, > 100 µM. For the same compound, the GI50 in the assay with EKVX, in the assay on HL-60, in the assay with NCI-H226, in the assay on SF-539, in the assay on SNB-19 and with MCF7 was > 100 µM (inactive) throughout. Moreover, the GI50 in the assay on SK-OV-3 and in the assay with MDA-MB-231 was > 100 µM (inactive) each time.
Turning to `COc1ccc(NC(=O)CC(=O)N2N=C(c3ccccc3)C(/N=N/c3ccc(S(=O)(=O)CCOS(=O)(=O)O)cc3)C2=O)cc1` (stereo not given), the GI50 in the assay with SF-268, in the assay on M14, with MDA-MB-435, in the assay with 786-0, in the assay with SW-620 and in the assay on BT-549 was > 100 µM (inactive) each time. The GI50 with SK-MEL-2 is > 100 µM (inactive); in the assay with A549, > 100 µM (inactive); in the assay with U-251 it was > 100 µM (inactive); with RPMI-8226, > 100 µM (inactive); in the assay on K562 it was > 100 µM (inactive); with HCT-15, > 100 µM. Besides, the GI50 in the assay with EKVX, in the assay with HL-60, with NCI-H226, with SF-539, with SNB-19 and with MCF7 was > 100 µM (inactive) throughout. The GI50 in the assay with SK-OV-3 and with MDA-MB-231 was > 100 µM (inactive) each time.
For the compound `C=C1c2ccccc2Oc2nc3nc(N)c(C#N)c(N)c3c(N)c21`, the GI50 was 21.6 µM (inactive) in the assay on SF-268; 29.6 µM (inactive) with M14; 30.5 µM (inactive) with MDA-MB-435; 27 µM (inactive) in the assay on 786-0; 30.5 µM (inactive) in the assay with SW-620; 39.9 µM (inactive) in the assay on BT-549. For the same compound, the GI50 in the assay on SK-MEL-2 was 17.8 µM (inactive); in the assay with A549 it was 30.1 µM (inactive); with U-251, 30.2 µM (inactive); in the assay with RPMI-8226 it was 24.4 µM (inactive); with K562, 40.7 µM (inactive); with HCT-15, 16.9 µM. The GI50 with EKVX was 11.9 µM (inactive); in the assay on HL-60, 21.6 µM (inactive); in the assay with NCI-H226, 20.1 µM (inactive); with SF-539 it was 20 µM (inactive); in the assay with SNB-19 it was 40.7 µM (inactive); with MCF7 it was 14.6 µM (inactive). Further, the GI50 in the assay on SK-OV-3 is 24.1 µM (inactive); in the assay on MDA-MB-231, 47.6 µM (inactive).
As for `COC(=O)/C=C1\C(=O)N(C(C)=O)c2ccc(Br)cc21`, the GI50 is 7.46 µM (inactive) in the assay on SF-268; 10.4 µM (inactive) in the assay with M14; 9.35 µM (inactive) with MDA-MB-435; 5.46 µM (inactive) with 786-0; 6.03 µM (inactive) in the assay on SW-620; 9.08 µM (inactive) with BT-549. Also, the GI50 was 13.9 µM (inactive) in the assay on SK-MEL-2; 17.5 µM (inactive) in the assay on A549; 8.05 µM (inactive) in the assay with U-251; 2.66 µM (inactive) in the assay on RPMI-8226; 7.69 µM (inactive) in the assay with K562; 6.75 µM with HCT-15. Besides, the GI50 in the assay on EKVX was 15.2 µM (inactive); with HL-60, 2.23 µM (inactive); with NCI-H226 it was 15.1 µM (inactive); with SF-539, 4.67 µM (inactive); with SNB-19 it was 14.3 µM (inactive); in the assay on MCF7, 4.5 µM (inactive). The values for the GI50 with SK-OV-3 and in the assay with MDA-MB-231 were 15.4 µM (inactive) and 14.9 µM (inactive), respectively.

For the origin of these results see ChEMBL document CHEMBL1201862, “PubChem BioAssay data set” (2004).
